In PubChem BioAssay (NCI):
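Cultured in 96-well plates, cells were exposed to test compound for 48 hours across five concentrations. Here, GI50 denotes the concentration required for 50% inhibition of growth. At the TGI there is no net growth.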

Legend:
Experiment in all cases: inhibition of tumour cell growth, NCI panel, 48 h
IGROV1 ovarian = system: IGROV1 ovarian
COLO 205 colon = system: COLO 205 colon
MOLT-4 leukemia = system: MOLT-4 leukemia
OVCAR-5 ovarian = system: OVCAR-5 ovarian
MALME-3M melanoma = system: MALME-3M melanoma
SF-295 CNS = system: SF-295 CNS
ACHN renal = system: ACHN renal
SNB-19 CNS = system: SNB-19 CNS
HOP-92 NSCLC = system: HOP-92 NSCLC
NCI-H522 lung = system: NCI-H522 lung
CAKI-1 renal = system: CAKI-1 renal
MCF7 breast = system: MCF7 breast
HCC-2998 colon = system: HCC-2998 colon
RXF 393 renal = system: RXF 393 renal
SF-268 CNS = system: SF-268 CNS
UACC-62 melanoma = system: UACC-62 melanoma
K-562 leukemia = system: K-562 leukemia
HOP-62 NSCLC = system: HOP-62 NSCLC
786-0 renal = system: 786-0 renal
SK-OV-3 ovarian = system: SK-OV-3 ovarian
A549 NSCLC = system: A549 NSCLC
SNB-75 CNS = system: SNB-75 CNS
EKVX NSCLC = system: EKVX NSCLC
HL-60(TB) leukemia = system: HL-60(TB) leukemia
OVCAR-8 ovarian = system: OVCAR-8 ovarian
TK-10 renal = system: TK-10 renal
SK-MEL-28 melanoma = system: SK-MEL-28 melanoma
PC-3 prostate = system: PC-3 prostate
U251 CNS = system: U251 CNS
LOX IMVI melanoma = system: LOX IMVI melanoma

## Cc1ccc(C(=O)NN2C(=O)/C(=C/C=C/c3ccc([N+](=O)[O-])o3)SC2=S)cc1
IGROV1 ovarian
  GI50: 0.811 µM
  TGI: 2.11 µM
COLO 205 colon
  GI50: 0.348 µM
  TGI: 1.07 µM
MOLT-4 leukemia
  GI50: 0.294 µM
  TGI: 2.67 µM
OVCAR-5 ovarian
  GI50: 1.43 µM
  TGI: 2.79 µM
MALME-3M melanoma
  GI50: 0.177 µM
  TGI: 0.378 µM
SF-295 CNS
  GI50: 1.76 µM
  TGI: 3.48 µM
ACHN renal
  GI50: 0.684 µM
  TGI: 1.86 µM
SNB-19 CNS
  GI50: 1.61 µM
  TGI: 3.01 µM
HOP-92 NSCLC
  GI50: 0.245 µM
  TGI: 0.893 µM
NCI-H522 lung
  GI50: 0.185 µM
  TGI: 0.363 µM
CAKI-1 renal
  GI50: 0.911 µM
  TGI: 2.19 µM
MCF7 breast
  GI50: 0.413 µM
  TGI: 1.89 µM
HCC-2998 colon
  GI50: 0.486 µM
  TGI: 1.72 µM
RXF 393 renal
  GI50: 0.789 µM
  TGI: 2.14 µM
SF-268 CNS
  GI50: 1.96 µM
  TGI: 4.82 µM
UACC-62 melanoma
  GI50: 0.378 µM
  TGI: 1.21 µM
K-562 leukemia
  GI50: 0.188 µM
  TGI: 3.48 µM
HOP-62 NSCLC
  GI50: 1.6 µM
  TGI: 3.12 µM
786-0 renal
  GI50: 0.451 µM
  TGI: 1.62 µM
SK-OV-3 ovarian
  GI50: 1.77 µM
  TGI: 3.35 µM
A549 NSCLC
  GI50: 2.18 µM
  TGI: 5.9 µM
SNB-75 CNS
  GI50: 1.3 µM
  TGI: 3.17 µM
EKVX NSCLC
  GI50: 0.543 µM
  TGI: 1.85 µM
HL-60(TB) leukemia
  GI50: 1.88 µM
  TGI: 10.5 µM
OVCAR-8 ovarian
  GI50: 0.292 µM
  TGI: 1.02 µM
TK-10 renal
  GI50: 1.68 µM
  TGI: 3.58 µM
SK-MEL-28 melanoma
  GI50: 1.09 µM
  TGI: 2.31 µM
PC-3 prostate
  GI50: 1.14 µM
  TGI: 3 µM
U251 CNS
  GI50: 0.701 µM
  TGI: 1.97 µM
LOX IMVI melanoma
  GI50: 0.179 µM
